{"source": "patent US20240165123A1", "about": "“USE OF A COMPOUND CONTAINING A TRICYCLIC HETEROARYL GROUP” (CSPC Zhongqi Pharmaceutical Technology (Shijiazhuang) Co., …, priority 2021, published 2024)", "key": {"[1]": {"assay": "Toxicity test of single oral gavage administration in Beagle dogs", "format": "in vivo", "conditions": "administered twice within 24 hours", "experimental": "(§1) According to the general toxicology study in accordance with the NMPA “Good Laboratory Practice for Non-clinical Laboratory Studies” and FDA GLP specification (21CFR Part 58), and in line with the requirements of International Conference on Harmonization of Technical Requirements for Registration of Pharmaceuticals for Human Use (ICH) and the NMPA relevant guidelines, the toxicology study on Compound (I) was carried out to provide safety data support for the use of Compound (I) in clinical patients. The administration mode and the experimental results were as follows: […]"}, "[2]": {"assay": "Toxicity test of oral gavage administration in SD rats, 28 consecutive days", "format": "in vivo", "conditions": "for AUC: NOAEL 10 mg/kg/time BID, 28-day test; for Safety window, exposure method: NOAEL 28-day test", "experimental": "as §1"}}, "data": [{"smiles": "NC(=O)c1cnc(Nc2ccc3c(c2)OC[C@H]2CN(S(=O)(=O)C4CC4)CCN32)nc1NC1CC1", "note": "[Compound (I), (R)-4-(cyclopropylamino)-2-((3-(cyclopropylsulfonyl)-1,2,3,4,4a,5-hexahydrobenzo[b]pyrazolo[1,2-d][1,4]oxazin-8-yl)amino)pyrimidine-5-arboxamide]", "values": [{"measurement": "MTD", "setting": "[1]", "value": 500, "unit": "mg/kg/time"}, {"measurement": "MTD at 24 h", "setting": "[1]; dog, in vivo", "value": 1000, "unit": "mg/kg/day"}, {"measurement": "Safety window, according to the exposure", "setting": "[2]; SD rats, both sexes, NOAEL 28-day test vs rat effective dose exposure", "value": "8-13 fold"}, {"measurement": "Safety window, dose method", "setting": "[2]; SD rats, NOAEL 28-day test vs rat effective dose", "value": 3, "unit": "fold"}, {"measurement": "Safety window of human equivalent dose of NOAEL relative to the human initial dose", "setting": "[2]; SD, rat, in vivo, 28 days", "value": 16, "unit": "fold"}, {"measurement": "NOAEL at 28 days", "setting": "[2]; SD, rat, in vivo, po", "value": 20, "unit": "mg/kg/day"}, {"measurement": "AUC", "setting": "[2]; female, SD, rat, in vivo, po, rats ♀", "value": 58100, "unit": "ng·h/mL"}, {"measurement": "AUC", "setting": "[2]; male, SD, rat, in vivo, po, rats ♂", "value": 33900, "unit": "ng·h/mL"}, {"measurement": "Human equivalent dose (based on 60 kg body weight)", "setting": "[2]; of NOAEL for 28-day test of rats", "value": 242, "unit": "mg"}, {"measurement": "NOAEL of repeated administration for 28 days", "setting": "[2]; rat, in vivo, po", "value": 10, "unit": "mg/kg/time"}, {"measurement": "Safety window, exposure method", "setting": "[2]; rats ♀", "value": "♀13 fold"}, {"measurement": "Safety window, exposure method", "setting": "[2]; rats ♂", "value": "♂8 fold"}]}]}
